The results in this text go back to patent US20100015058A1, “RADIOLABELED BBN-RGD HETERODIMERS FOR CANCER TARGETING” (STANFORD UNIVERSITY, priority 2008, published 2010).

The target of one data set is T1, integrin αvβ3 (Homo sapiens, UniProt P05106+P06756).
T1 construct: Experiments were performed on U87MG human glioma cells expressing integrin αvβ3 as previously described; endogenous in cells; host or cells: U87MG human glioblastoma (glioma) cells
The experiment in a line: Competitive cell-binding assay with ^125I-c(RGDyK) on U87MG cells. Conditions: FIG. 14A.

The nature of data set [1]: Octanol/water partition coefficient. It counts as physicochemical. Conditions: octanol / PBS pH 7.4, room temperature. The procedure:
The mixture was vigorously vortexed for 1 min at room temperature. After centrifugation at 12,500 rpm for 5 min in an Eppendorf microcentrifuge (model 5415R; Brinkman), 200-μL aliquots of both layers were measured using a 7-counter (Packard Instruments). The experiment was performed in triplicate.

The subject of another data set is DU-145 tumor. The format is in vivo, mice. Conditions: integrin αvβ3-positive, low GRPR-expressing tumor. The procedure:
The PC-3 and DU-145 human prostate carcinoma cell lines were purchased from American Type Culture Collection. PC-3 cells were grown in F-12K nutrient mixture (Kaighn's modification) (Invitrogen Corp.), and DU-145 cells were grown in minimum essential medium (Eagle) mixture supplemented with 10% (v/v) fetal bovine serum (Invitrogen) at 37° C. with 5% CO2. The PC-3 and DU-145 tumor models were generated by subcutaneous injection of 5×10^6 tumor cells into the front flank of male athymic nude mice (Harlan).
No attenuation or scatter correction was applied.

The nature of data set [2]: Small-animal PET of PC-3 tumor-bearing mice. Conditions: male, athymic nude, mouse, in vivo, iv, 3.7 MBq, total radioactivity, PC-3 tumor uptake, PET ROI. The procedure: (a) PET scans and image analysis were performed using a micro-PET R4 rodent model scanner (Siemens Medical Solutions) as reported by Li et al., J. Nucl. Med. (2007) 48: 1162-1171 and Wu et al., J Nucl. Med. (2005) 46: 1707-1718, both of which are incorporated herein by reference in their entireties). […] Five-minute static PET images were then acquired at 0.5, 1, and 2 h after injection. The images were reconstructed by a 2-dimensional ordered-subsets expectation maximum (OSEM) algorithm. No attenuation or scatter correction was applied. […] The 5-min static PET scans were then acquired at 1 hr after injection. For each small-animal PET scan, regions of interest (ROIs) were drawn over the tumor, normal tissue, and major organs by using vendor software (ASI Pro 5.2.4.0) on decay-corrected whole-body coronal images. The average radioactivity concentration (accumulation) within a tumor or an organ was obtained from mean pixel values within the multiple ROI volume, which were converted to counts/mL/min using a conversion factor. Assuming a tissue density of 1 g/mL, the ROIs were converted to counts/g/min, and then divided by the administered activity to obtain an imaging ROI-derived percentage injected dose per gram of tissue (% ID/g).
For dynamic PET, 30-min scans (1×30 s, 4×1 min, 1×1.5 min, 4×2 min, 5×3 min; total 15 frames) were started 1 min after injection, and two 5-min static PET images were also acquired at 1 h and 2 h after injection. […] For each small-animal PET scan, regions of interest (ROIs) were drawn over the tumor, normal tissue, and major organs using vendor software ASI Pro 5.2.4.0 on decay-corrected whole-body coronal images. The maximum radioactivity concentrations (accumulation) within a tumor or an organ were obtained from mean pixel values within the multiple ROI volume, and were converted to megabecquerels per milliliter per minute using a conversion factor. These values were then divided by the administered activity to obtain (assuming a tissue density of 1 g/ml) an image ROI-derived percent injected dose per gram (% ID/g).
The images were reconstructed using a 2-dimensional ordered-subsets expectation maximum algorithm without attenuation or scatter correction.
For each small-animal PET scan, regions of interest were drawn over each tumor, over normal tissue, and over major organs using vendor software (ASI Pro, version 5.2.4.0) on decay-corrected whole-body coronal images. The maximum radioactivity concentration (accumulation) within a tumor or an organ was obtained from the mean pixel values within the multiple-region-of-interest volume, which were converted to MBq/mL/min using a conversion factor. Assuming a tissue density of 1 g/mL, the regions of interest were converted to MBq/g/min and then divided by the administered activity to obtain an imaging region-of-interest-derived percentage injected dose (% ID)/g.

For a further data set, the system named is PC-3 tumor cells. Nature of the data set: Cell uptake assay on PC-3 tumor cells. It counts as cell-based, human. Conditions: PC-3 cells, 37° C., within 30 min of incubation, plateau afterward. The method, then: In the cell uptake experiment, PC-3 cells were seeded into 12-well plates at a density of 5×10^5 cells per well for overnight incubation. Cells were rinsed 3 times with phosphate-buffered saline (PBS), followed by the addition of ^18F-FB-RGD, ^18F-FB-BBN, or ^18F-BBN-RGD to the cultured wells in triplicate (about 2 μCi/well). […] The cell lysate was collected in measurement tubes for counting. The cell uptake was normalized in terms of added radioactivity.
The cell uptake studies were performed as we have previously described with some modifications (Chen et al., Mol Imaging Biol. (2004) […]; Cai et al., (2006) J. Nuc. Med. 47: 1172-1180, incorporated herein by reference in their entireties). Briefly, PC-3 cells were seeded into 12-well plates at a density of 5×10^5 cells per well and incubated (about 18 kBq/well) with ^68Ga-labeled tracers at 37° C. for 15, 30, 60, and 120 min. Tumor cells were then washed three times with chilled PBS and harvested by trypsinization with 0.25% trypsin/0.02% EDTA (Invitrogen). The cell suspensions were collected and measured in a y counter (Packard, Meriden, Conn.). The cell uptake was expressed as the percent added dose (% AD) after decay correction. Experiments were performed twice with triplicate wells. For efflux studies, ^68Ga-labeled tracers (about 18 kBq/well) were first incubated with PC-3 cells in 12-well plates for 1 h at 37° C. to allow internalization. Then cells were washed twice with PBS, and incubated with cell culture medium for 15, 30, and 60 min. After washing three times with PBS, cells were harvested by trypsinization with 0.25% trypsin/0.02% EDTA. The cell suspensions were collected and measured in a γ counter. Experiments were performed twice with triplicate wells. Data are expressed as percent added dose after decay correction.

Data set [3] can be described thus: Small-animal PET of MDA-MB-435 tumor-bearing mice. Conditions: female, athymic nude, mouse, in vivo, iv, total radioactivity; 30 min p.i., BBN tracer control study, FIG. 44B; read-out: MDA-MB-435 tumor uptake.

`CSCC[C@H](NC(=O)[C@H](CC(C)C)NC(=O)[C@H](Cc1c[nH]cn1)NC(=O)CNC(=O)[C@@H](NC(=O)[C@H](C)NC(=O)[C@H](Cc1c[nH]c2ccccc12)NC(=O)[C@H](CCC(N)=O)NC(=O)CCCCCN)C(C)C)C(N)=O` [Aca-BBN(7-14)]: the “binding inhibition of ^125I-c(RGDyK)” value on integrin αvβ3 is recorded as “did not show significant binding inhibition”.
Compound `CSCC[C@H](NC(=O)[C@H](CC(C)C)NC(=O)[C@H](Cc1c[nH]cn1)NC(=O)CNC(=O)[C@@H](NC(=O)[C@H](C)NC(=O)[C@H](Cc1c[nH]c2ccccc12)NC(=O)[C@H](CCC(N)=O)NC(=O)CCCCCNC(=O)c1ccc(F)cc1)C(C)C)C(N)=O` [^18F-FB-BBN, reference compound] showed a logP in data set [1] of 1.49 ± 0.02. In addition, the “detection of the DU-145 tumor by PET” value in the data set on DU-145 tumor was “unable to detect the DU-145 tumor”. For the same compound, the tissue uptake at 0.5 h stood at 0.63 ± 0.16 %ID/g in data set [2] (30 min after injection of 3.7 MBq) and 0.45 ± 0.11 %ID/g in data set [3]. In addition, the tissue uptake at 1 h in data set [2] (60 min after injection of 3.7 MBq, no blocking) turned out to be 0.44 ± 0.1 %ID/g. In addition, the tissue uptake at 2 h in data set [2] (120 min after injection of 3.7 MBq) was found to be 0.29 ± 0.08 %ID/g. Further, in the data set on PC-3 tumor cells, the cell uptake result was “about 7%”.

Broadly, the logP is a log measure of how a compound divides between an organic and an aqueous phase.
